The text below walks through data of US11584765B2 (priority 2017, dated 2023).

Molecules are shown by their SMILES.

In this experiment the test system is C57BL/6 mice. Briefly: animal or person. It counts as in vivo. To be noted: Mus musculus, sc, 0.5 h, s.c. administration, 30 min, 55° C. water, read-out: ED50 (mg/kg) at 30 min on C57BL/6 mice in Warm-water Tail-flick Test.
For `CCOCC1(CCc2ccc(OC)cc2)CCN(Cc2cccnc2)C1` (centres unmarked) [Compound 292, 3-((3-(ethoxymethyl)-3-(4-methoxy-phenethyl)pyrrolidin-1-yl)methyl)pyridine], the ED50 is over 10 mg/kg.

For `C1=CC(C2(CCc3cccs3)CCN(Cc3cccnc3)CC2)OC1` (centres unmarked) [Compound 293, 3-((4-(2,5-dihydrofuran-2-yl)-4-(2-(thiophen-2-yl)ethyl)piperidin-1-yl)methyl)pyridine], the ED50 was over 10 mg/kg.

Turning to `CCOCC1(CCc2ccccc2)CCN(C(C)c2ccc(C)nc2)C1` (centres unmarked) [Compound 294, 5-(1-(3-(ethoxymethyl)-3-phenethyl-pyrrolidin-1-yl)ethyl)-2-methylpyridine], the ED50 was under 10 mg/kg.

Regarding `CCOCC1(CCc2ccc(F)cc2)CCN(C(C)c2ccc(C)nc2)C1` (centres unmarked) [Compound 295, 5-(1-(3-(ethoxymethyl)-3-(4-fluoro-phenethyl)pyrrolidin-1-yl)ethyl)-2-methylpyridine], the ED50 was under 10 mg/kg.

For `CCOCC1(CCc2ccc(F)cc2)CCN(Cc2ccc(C)nc2)C1` (centres unmarked) [Compound 296, 5-((3-(ethoxymethyl)-3-(4-fluoro-phenethyl)pyrrolidin-1-yl)methyl)-2-methylpyridine], the ED50 was under 10 mg/kg.

As to `CCOCC1(CCc2cc(C)cs2)CCN(Cc2ccc(C)nc2)C1` (centres unmarked) [Compound 297, 5-((3-(ethoxymethyl)-3-(2-(4-methylthiophen-2-yl)ethyl)pyrrolidin-1-yl)methyl)-2-methylpyridine], the ED50 is under 10 mg/kg.

Turning to `CCOCC1(CCc2ccccc2)CCN(C(CC)c2ccc(C)nc2)C1` (centres unmarked) [Compound 298, 5-(1-(3-(ethoxymethyl)-3-phenethylpyrrolidin-1-yl)propyl)-2-methylpyridine], the ED50 was under 10 mg/kg.

In the case of `CCOCC1(CCc2cc(C)cs2)CCN(Cc2ccc(C)nc2)CC1` [Compound 299, 5-((4-(ethoxymethyl)-4-(2-(4-methylthiophen-2-yl)ethyl)piperidin-1-yl)methyl)-2-methylpyridine], the ED50 is under 10 mg/kg.

Turning to `CCOCC1(CCc2ccc(F)s2)CCN(Cc2ccc(C)nc2)C1` (centres unmarked) [Compound 300, 5-((3-(ethoxymethyl)-3-(2-(5-fluorothiophen-2-yl)ethyl)pyrrolidin-1-yl)methyl)-2-methylpyridine], the ED50 is under 10 mg/kg.

Turning to `CCOCC1(CCc2cc3ccccc3s2)CCN(Cc2ccc(C)nc2)C1` (centres unmarked) [Compound 301, 5-((3-(2-(benzo[b]thiophen-2-yl)ethyl)-3-(ethoxy-methyl)pyrrolidin-1-yl)methyl)-2-methylpyridine], the ED50 is over 10 mg/kg.

Consider `CCOCC1(CCc2csc3ccccc23)CCN(Cc2ccc(C)nc2)C1` (centres unmarked) [Compound 302, 5-((3-(2-(benzo[b]thiophen-3-yl)ethyl)-3-(ethoxy-methyl)pyrrolidin-1-yl)methyl)-2-methylpyridine], for which the ED50 was under 10 mg/kg.

In the case of `CCOC[C@@]1(CCc2ccccc2)CCN(C(C)c2ccc(C)nc2)C1.Cl` (stereo partly drawn) [Compound 303, 5-(1-((S)-3-(ethoxymethyl)-3-phenethylpyrrolidin-1-yl)ethyl)-2-methylpyridine HCl], the ED50 was under 10 mg/kg.

`CCOCC1(CCc2ccc(C)s2)CCN(Cc2ccc(C)nc2)CC1` [Compound 304, 5-((4-(ethoxymethyl)-4-(2-(5-methylthiophen-2-yl)ethyl)piperidin-1-yl)methyl)-2-methylpyridine]: the ED50 is under 10 mg/kg.

Consider `CCOCC1(CCc2ccccc2)CCN(C(C)c2ccc(C)nc2C)C1` (centres unmarked) [Compound 305, 3-(1-(3-(ethoxymethyl)-3-phenethylpyrrolidin-1-yl)ethyl)-2,6-dimethylpyridine], for which the ED50 was under 10 mg/kg.

`CCOCC1(CCc2ccsc2)CCN(Cc2ccc(C)nc2C)C1` (centres unmarked) [Compound 306, 3-((3-(ethoxymethyl)-3-(2-(thiophen-3-yl)ethyl)pyrrolidin-1-yl)methyl)-2,6-dimethylpyridine]: the ED50 is under 10 mg/kg.

As for `CCOC[C@@]1(CCc2ccccc2)CCN(Cc2ccc(C)nc2C)C1` [Compound 307, (S)-3-((3-(ethoxymethyl)-3-phenethylpyrrolidin-1-yl)methyl)-2,6-dimethylpyridine], the ED50 was under 10 mg/kg.

Take `CCOCC1(CCc2nc3ccccc3o2)CCN(Cc2cccnc2)C1` (centres unmarked) [Compound 308, 2-(2-(3-(ethoxymethyl)-1-(pyridin-3-ylmethyl)pyrrolidin-3-yl)ethyl)benzo[d]oxazole]: the ED50 was over 10 mg/kg.

Consider `CCOCC1(CCc2csc3ccccc23)CCN(Cc2cccnc2)C1` (centres unmarked) [Compound 309, 3-((3-(2-(benzo[b]thiophen-3-yl)ethyl)-3-(ethoxy-methyl)pyrrolidin-1-yl)methyl)pyridine], for which the ED50 is over 10 mg/kg.

Regarding `Cc1ccc(CN2CCC(CCc3ccccc3)(c3ccccn3)CC2)c(C)n1` [Compound 310, 2,6-dimethyl-3-((4-phenethyl-4-(pyridin-2-yl)piperidin-1-yl)methyl)pyridine], the ED50 is under 10 mg/kg.

Take `CCOCC1(CCc2ccc(F)cc2)CCN(Cc2ccc(C)nc2C)C1` (centres unmarked) [Compound 311, 3-((3-(ethoxymethyl)-3-(4-fluoro-phenethyl)pyrrolidin-1-yl)methyl)-2,6-dimethylpyridine]: the ED50 is under 10 mg/kg.

Regarding `CCOCC1(CCc2cc(C)sc2C)CCN(Cc2cnn(C)c2)C1` (centres unmarked) [Compound 312, 4-((3-(2-(2,5-dimethylthiophen-3-yl)ethyl)-3-(ethoxy-methyl)pyrrolidin-1-yl)methyl)-1-methyl-1H-pyrazole], the ED50 is under 10 mg/kg.

Regarding `CCOCC1(c2ccccn2)CCN(Cc2ccc(C)nc2C)C1` (centres unmarked) [Compound 313, 3-((3-(ethoxymethyl)-3-(pyridin-2-yl)pyrrolidin-1-yl)methyl)-2,6-dimethylpyridine], the ED50 is over 10 mg/kg.

Consider `COCCC1(c2ccccn2)CCN(Cc2ccc(C)nc2C)C1` (centres unmarked) [Compound 314, 3-((3-(2-methoxyethyl)-3-(pyridin-2-yl)pyrrolidin-1-yl)methyl)-2,6-dimethylpyridine], for which the ED50 is over 10 mg/kg.

Regarding `CCOCC1(CCc2ccccc2)CCN(Cc2cccn2-c2cccnc2)C1` (centres unmarked) [Compound 315, 3-(2-((3-(ethoxymethyl)-3-phenethylpyrrolidin-1-yl)methyl)-1H-pyrrol-1-yl)pyridine], the ED50 is over 10 mg/kg.

On to `CCOCC1(CCc2ccccc2)CCN(Cc2ccccc2-c2cccs2)C1` (centres unmarked) [Compound 316, 3-(ethoxymethyl)-3-phenethyl-1-(2-(thiophen-2-yl)benzyl)pyrrolidine], for which the ED50 is over 10 mg/kg.

Regarding `CCOCC1(CCc2ccccc2)CCN(Cc2ccccc2-c2ccco2)C1` (centres unmarked) [Compound 317], the ED50 is over 10 mg/kg.

Regarding `CCOC[C@@]1(CCc2ccsc2)CCN(Cc2ccc(C)nc2)C1` [Compound 318, (S)-5-((3-(ethoxymethyl)-3-(2-(thiophen-3-yl)ethyl)pyrrolidin-1-yl)methyl)-2-methylpyridine], the ED50 is under 10 mg/kg.

Consider `CCOC[C@@]1(CCc2ccccc2)CCN(Cc2ccc(C)nc2)C1` [Compound 319, (S)-5-((3-(ethoxymethyl)-3-phenethylpyrrolidin-1-yl)methyl)-2-methylpyridine], for which the ED50 is under 10 mg/kg.

On to `CCOC[C@@]1(CCc2ccc(F)cc2)CCN(Cc2ccc(C)nc2)C1` [Compound 320, (S)-5-((3-(ethoxymethyl)-3-(4-fluoro-phenethyl)pyrrolidin-1-yl)methyl)-2-methylpyridine], for which the ED50 was under 10 mg/kg.
